Test results from patent US7605175B2, “Inhibitors of cyclin-dependent kinases, compositions and uses related thereto” (GPC Biotech AG, priority 2001, dated 2009).
Where two headings read alike, the source gives them in different places.

Key:
[1] = target: T1, Cdc2/cyclin B (Homo sapiens, UniProt P06493); test: Biochemical kinase assay Cdc2/cyclin B; conditions: Table 6
T1 construct: purchased
Excerpt: (§1) Enzymes: Cdc2/cyclin B was obtained from commercial sources. Cdk2/his-cyclin Eshort was expressed in Sf9 cells. Cdk2/cyclin A, cdk4/cyclin D1, and cdk6/cyclin D2 were expressed in Sf9 cells. Protein kinase A (catalytic subunit, from bovine heart) and protein kinase C (mixed isozymes from rat brain) were obtained from commercial sources.
(§2) Substrates: Histone H1 was from commercial sources. GST-Rb is glutathione-S-trans-ferase fused to the N-terminal of residues 379-928 of the Rb protein.
Assays: Cdc2/cyclinB activity was determined by measuring incorporation of radio-activity from adenosine [γ-^32P]triphosphate into Histone H1 using a TCA precipitation assay. Cdc2/cyclin B kinase and Histone H1 were obtained from commercial sources. The final assay solution contained 50 mM Tris.HCl, 10 mM MgCl2, 1 mM dithiothreitol, 50 μM adenosine triphosphate, 2 μCi ^32P, 10% dimethylsulfoxide (from compounds), pH 7.5, 20 μg Histone H1, 6 U enzyme in a 50 μL volume. Compounds were added at various concentrations between 1 nM and 10 μM. The reaction was started with the addition of enzyme, allowed to proceed for 20 min at 30° C., and stopped by the addition of 20 μL of stop solution (237 mM disodium ethylenediamine tetraacetate, 105 mM adenosine triphosphate, pH 8.0). The protein was precipitated by the addition of 35 μL 70% (w/v) trichloroacetic acid, and the precipitate was captured on a 96-well glass fiber filter plate (Millipore, Inc.), which had been wet with 25% (w/v) trichloroacetic acid. The filter was washed ten times with 25% (w/v) trichloroacetic acid, and the amount of incorporated ^32P was determined by scintillation counting after adding 100 μL scintillant (Microscint 20, Packard Instruments). Relative activity was determined by dividing the amount of radioactivity incorporated in the presence of compound by the amount of radioactivity incorporated in a control experiment containing DMSO alone but no compound. The background radioactivity, determined in an experiment containing 50 mM EDTA in place of compound, was subtracted from all results before calculations.

[2] = target: T2, Cdk4/cyclin D1 (Homo sapiens, UniProt P11802); test: Biochemical kinase assay Cdk4/cyclin D1; conditions: Table 6
T2 construct: made in house; host or cells: Sf9 insect cells
T2 sequence (P11802 whole entry, species assumed): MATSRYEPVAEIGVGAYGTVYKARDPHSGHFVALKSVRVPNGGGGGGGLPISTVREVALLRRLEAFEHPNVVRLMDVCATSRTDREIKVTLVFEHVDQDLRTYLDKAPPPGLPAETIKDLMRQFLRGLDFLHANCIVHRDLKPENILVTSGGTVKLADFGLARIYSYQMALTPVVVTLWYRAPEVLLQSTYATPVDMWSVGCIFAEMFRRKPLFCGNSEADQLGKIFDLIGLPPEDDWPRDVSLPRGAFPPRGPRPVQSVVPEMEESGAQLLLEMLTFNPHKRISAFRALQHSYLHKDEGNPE
T2 sequence (P24385 whole entry partner, species assumed): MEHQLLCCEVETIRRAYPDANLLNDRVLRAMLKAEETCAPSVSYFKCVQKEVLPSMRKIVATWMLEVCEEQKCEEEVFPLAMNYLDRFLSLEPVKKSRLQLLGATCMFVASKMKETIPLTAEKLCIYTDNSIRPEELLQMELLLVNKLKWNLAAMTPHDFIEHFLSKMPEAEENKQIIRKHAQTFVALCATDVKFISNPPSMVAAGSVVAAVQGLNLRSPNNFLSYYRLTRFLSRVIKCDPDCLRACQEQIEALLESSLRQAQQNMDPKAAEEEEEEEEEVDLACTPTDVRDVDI
Excerpt: as §1, §2
(§3) Cdk2/cyclin E, Cdk2/cyclin A, Cdk4/cyclin D1, and Cdk6/cyclin D2 activity was determined using a glutathione-sepharose capture assay. The enzymes were expressed in Sf9 insect cells as heterodimers, and the substrate (GST-Rb) was glutathione-S-transferase fused to residues 379 to 928 of Rb retinoblastoma protein, expressed in E. coli. The assay solution contained 50 mM Tris.HCl, 10 mM MgCl2, 1 mM dithiothreitol, 50 μM adenosine triphosphate, 2 μCi [γ-^33P]adenosine triphosphate, 10% dimethylsulfoxide (from compounds), pH 7.5, 40 μg GST-Rb, and enzyme in a 100 μL volume. Compounds were added at various concentrations between 1 nM and 10 μM. The reaction was allowed to proceed for 15 min at 30° C. and was stopped by the addition of 70 μL of stop solution (237 mM disodium ethylene-diamine tetraacetate, 105 mM adenosine triphosphate, pH 8.0). The GST-Rb was captured by binding to glutathione-sepharose bead (Amersham) for 110 min, and the suspension was filtered through a glass fiber filter. After washing the retained beads five time with phosphate-buffered saline containing 0.3% (w/v) Tween-20, the amount of ^33P incorporated was determined by scintillation counting after adding 100 μL scintillant. Relative activity was determined by dividing the amount of radioactivity incorporated in the presence of compound by the amount of radioactivity incorporated in a control experiment containing DMSO alone but no compound. The background radioactivity, determined in an experiment containing 50 mM disodium ethylenediamine tetraacetate in place of compound, was subtracted from all results before calculations.

[3] = test system: HCT-116 cells; test: Calcein AM viability assay, HCT-116; type: cell-based; conditions: Homo sapiens
Experimental: The potency of Cdk inhibitors, as measured by loss of cellular viability, was determined with the Calcein AM assay (Molecular Probes). Calcein AM is a substrate of intracellular esterases, which is cleaved only in viable cells to generate a fluorescent product that can be quantified with a fluorescent plate reader. The fluorescent signal is proportional to the number of viable cells, and thus loss of signal in response to the exposure of cells to Cdk inhibitors correlates with a loss of viability. This assay can distinguish cell cycle arrest, in which cells may still by viable, from loss of viability and is thus well suited for the evaluation of Cdk inhibitors. A compound that is a potent cytotoxic, may cause significant loss of cell viability in such assay.
Cellular IC50's were determined in the human colorectal carcinoma cell line, HCT-116, and the normal human fibroblast, IMR90. Protein adjusted IC50's were also determined in HCT-116.
HCT-116 or IMR90 cells were recovered from sub-confluent plates by trypsinization and 1,000 or 4,000 cells, respectively, were plated in 24-well dishes and incubated overnight at 37° C., 5% CO2. HCT-116 cells were cultured in RPMI-1640, 10% FCS, and IMR90 cells were cultured in Minimum Essential Medium-alpha, 10% FCS. After overnight incubation to allow adherence, the media was aspirated from each well and replaced with media containing a test compound at a concentration from 0 to 250 nM, spanning a total of 7 doses. The plates were returned to the incubator and cultured for an additional 72 hours (3 days). […] After 72-hours incubation with the test compound, the cells were washed twice with 1×PBS, taking special care to remove all residual buffer.
A 5 μM Calcein AM solution was prepared by dissolving a […] aliquot of Calcein (Molecular Probes catalog # C3100) in 50 μl DMSO. After the Calcein had completely dissolved (10 minutes at room temperature), it was diluted into 10 ml PBS. Calcein/PBS (0.5 ml) was added to each well. The plates were incubated for 75 minutes at 37° C. (protected from light) and the fluorescent signal was read on a fluorescent plate reader (excitation 485/20 and emission 530/25).

[4] = target: T3, Cdk2/cyclin E (Homo sapiens, UniProt P24941); test: Biochemical kinase assay Cdk2/cyclin E; conditions: Table 6
T3 construct: made in house; host or cells: Sf9 insect cells
Excerpt: as §1, §2, §3

[5] = HCT-116, non-protein adjusted, Table 6, read-out: HCT-116 viability IC50

T1 sequence (P06493 whole entry, species assumed): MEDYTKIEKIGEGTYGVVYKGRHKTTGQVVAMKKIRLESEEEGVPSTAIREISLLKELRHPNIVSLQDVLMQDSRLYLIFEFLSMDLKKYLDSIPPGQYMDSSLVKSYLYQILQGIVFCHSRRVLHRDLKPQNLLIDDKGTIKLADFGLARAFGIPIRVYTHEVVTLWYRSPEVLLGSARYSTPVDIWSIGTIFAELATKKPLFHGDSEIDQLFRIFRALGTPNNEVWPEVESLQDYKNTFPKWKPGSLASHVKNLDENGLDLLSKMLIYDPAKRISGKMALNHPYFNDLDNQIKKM
T1 sequence (P14635 whole entry partner, species assumed): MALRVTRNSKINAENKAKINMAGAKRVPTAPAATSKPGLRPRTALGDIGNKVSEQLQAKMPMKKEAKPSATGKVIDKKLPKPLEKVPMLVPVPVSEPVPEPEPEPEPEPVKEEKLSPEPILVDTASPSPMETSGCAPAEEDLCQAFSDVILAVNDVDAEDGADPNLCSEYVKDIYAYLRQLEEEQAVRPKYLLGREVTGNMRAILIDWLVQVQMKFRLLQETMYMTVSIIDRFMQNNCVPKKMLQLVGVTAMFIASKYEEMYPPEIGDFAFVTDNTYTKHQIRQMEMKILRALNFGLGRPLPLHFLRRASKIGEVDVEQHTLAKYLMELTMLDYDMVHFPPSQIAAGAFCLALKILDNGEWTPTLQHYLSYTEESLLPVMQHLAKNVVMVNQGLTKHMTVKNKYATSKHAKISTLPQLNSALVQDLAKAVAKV

Row | IC50 [1] [nM] | IC50 [2] [nM] | IC50 [3, 5] [nM] | IC50 [4] [nM] | Compound | IC50 ([3]; HCT-116, read-out: HCT-116 viability IC50) [nM]
1 | < 1000 | < 1000 | < 100 | < 100 | CC(C)c1nn(-c2c(Cl)cccc2Cl)c2nc(Cc3ccc(NS(=O)(=O)CCCN4CCOCC4)cc3)[nH]c(=O)c12 [Compound A30] | –
2 | < 1000 | < 10000 | < 10 | < 1000 | CCN1CCN(S(=O)(=O)c2cc(Cl)c(-n3nc(C(C)C)c4c(=O)[nH]c(Cc5ccc(OCCN6CCOCC6)cc5)nc43)c(Cl)c2)CC1 [Compound A53] | –
3 | < 1000 | < 10000 | < 100 | < 10 | CC(C)c1nn(-c2c(Cl)cccc2Cl)c2nc(Cc3ccc(OCCN4CCOCC4)cc3)[nH]c(=O)c12 [Compound A2] | –
4 | < 1000 | < 1000 | < 100 | < 100 | CC(C)c1nn(-c2c(Cl)cccc2Cl)c2nc(Cc3ccc(C(=O)NOCCN4CCOCC4)cc3)[nH]c(=O)c12 [Compound A52] | –
5 | < 1000 | < 1000 | < 100 | < 100 | CC(C)c1nn(-c2c(Cl)cc(Cl)cc2Cl)c2nc(Cc3ccc(CN4CCN(C(C)C)CC4)n3C)[nH]c(=O)c12 [Compound A42] | –
6 | < 100 | < 10000 | < 100 | < 100 | CCN(CCO)S(=O)(=O)c1cc(Cl)c(-n2nc(C(C)C)c3c(=O)[nH]c(Cc4ccc(OCCN5CCOCC5)cc4)nc32)c(Cl)c1 [Compound A55] | –
7 | < 100 | < 100 | < 100 | < 10 | CC(C)c1nn(-c2c(Cl)cccc2Cl)c2nc(Cc3ccc(O)cc3)[nH]c(=O)c12 [Compound A4] | –
8 | < 100 | < 10000 | < 100 | < 100 | CC(C)c1nn(-c2c(Cl)cccc2Cl)c2nc(Cc3ccc(OCCOP(=O)(O)O)cc3)[nH]c(=O)c12 [Compound A62] | –
9 | < 1000 | < 1000 | < 100 | < 100 | CC(C)c1nn(-c2c(Cl)cc(Cl)cc2Cl)c2nc(Cc3ccc(CN4CCCC4)n3C)[nH]c(=O)c12 [Compound A43] | –
10 | < 1000 | < 10000 | < 100 | < 100 | CC(C)c1nn(-c2c(Cl)cccc2Cl)c2nc(Cc3ccc(O)c(CN4CCOCC4)c3)[nH]c(=O)c12 [Compound A5] | –
11 | < 100 | < 1000 | < 100 | < 10 | CC(C)c1nn(-c2c(Cl)cc(Cl)cc2Cl)c2nc(Cc3ccc(OCCN4CCN(C(C)C)CC4)cc3)[nH]c(=O)c12 [Compound A1] | –
12 | < 100 | < 10000 | < 100 | < 100 | COCCOc1ccc(Cc2nc3c(c(C(C)C)nn3-c3c(Cl)cccc3Cl)c(=O)[nH]2)cc1 [Compound A66] | –
13 | < 10 | < 1000 | < 100 | < 10 | CC(C)c1nn(-c2c(Cl)cc(S(N)(=O)=O)cc2Cl)c2nc(Cc3ccc(OCCN4CCOCC4)cc3)[nH]c(=O)c12 [Compound A54] | –
14 | < 100 | < 1000 | < 100 | < 100 | CC(C)c1nn(-c2c(Cl)cccc2Cl)c2nc(Cc3ccc(OCC(C)(C)O)cc3)[nH]c(=O)c12 [Compound A63] | –
15 | < 1000 | – | < 100 | < 100 | CC(C)c1nn(-c2c(Cl)cccc2Cl)c2nc(Cc3ccc(CN4CCN(C(C)C)CC4)c(O)c3)[nH]c(=O)c12 [Compound A50] | –
16 | < 1000 | – | < 100 | < 100 | CC(C)c1nn(-c2c(Cl)cc(Cl)cc2Cl)c2nc(Cc3ccc(NS(=O)(=O)CCCN4CCCCC4)cc3)[nH]c(=O)c12 [Compound A48] | –

Row | Compound | IC50 [1] [nM] | IC50 [2] [nM] | IC50 [3, 5] [nM] | IC50 [4] [nM] | IC50 ([3]; HCT-116, read-out: HCT-116 viability IC50) [nM]
17 | CC(C)N1CCN(C(=O)COc2ccc(-c3[nH]nc4c3C(=O)c3c(NC(=O)NN5CCOCC5)cccc3-4)cc2)CC1 [Compound A76] | < 100 | < 100 | < 100 | < 100 | –
18 | CC(C)c1nn(-c2c(Cl)cccc2Cl)c2nc(Cc3ccc(OCCOC(=O)[C@@H](N)C(C)C)cc3)[nH]c(=O)c12 [Compound A60] | – | – | – | < 100 | < 100
